Assay results taken from PubChem BioAssay AID1963825 (Molecular Pharmacology Branch, DTP, NCI, 2024).

Assay: Anticancer human tumor 997537-175-T-J1-PDC patient-derived colon adenocarcinoma cell line growth inhibition [POLQ]
Conditions: 997537-175-T-J1-PDC complex spheroid viability, combination with POLQ inhibitors; for IC50: curve of first compound; for viability, T/C: stronger effect = lower value
Summary of the method: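 Patient-derived tumour cells were co-cultured with HUVEC and mesenchymal stem cells as multicellular spheroids at 37 °C. They were treated with POLQ inhibitors (novobiocin, ART-558, RP6685) alone or combined with other agents. Top concentrations were at or near clinical Cmax (otherwise 10 microM; SN-38 at 1 microM), decreasing in half-log steps.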
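Also: luminescence signal used as a surrogate for viable cells; spheroids exposed to drugs for seven days before readout.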

`CC(=O)O[C@H]1C(=O)[C@@]2(C)[C@H]([C@H](OC(=O)c3ccccc3)[C@]3(O)C[C@H](OC(=O)[C@H](O)[C@@H](NC(=O)c4ccccc4)c4ccccc4)C(C)=C1C3(C)C)[C@]1(OC(C)=O)CO[C@@H]1C[C@@H]2O` + Nc1ccc(C#CCN(C(=O)Cc2ncc(C(F)(F)F)cc2C(F)(F)F)c2ccc(F)cc2)nn1 gave an IC50 (second compound 0.0316 µM) of 27 nM, an IC50 (second compound 0.1 µM) of 50.1 nM and an IC50 (second compound 0.316 µM) of 16.8 nM. It also gave an IC50 (second compound 1 µM) of 14.8 nM, an IC50 (second compound 3.16 µM) of 32.5 nM and an IC50 (second compound 10 µM) of 18.5 nM. It also gave a viability, T/C (second compound 0.0316 µM, first compound 0.00949 µM) of 50.5%, a viability, T/C (second compound 0.0316 µM, first compound 0.03 µM) of 57.6% and a viability, T/C (second compound 0.0316 µM, first compound 0.0949 µM) of 32.5%. For the same compound, the viability, T/C (second compound 0.0316 µM, first compound 0.3 µM) was 55.7%, the viability, T/C (second compound 0.0316 µM, first compound 0.949 µM) was 33.8% and the viability, T/C (second compound 0.0316 µM, first compound 3 µM) was 34.3%. It also gave a viability, T/C (second compound 0.1 µM, first compound 0.00949 µM) of 70%, a viability, T/C (second compound 0.1 µM, first compound 0.03 µM) of 28.4% and a viability, T/C (second compound 0.1 µM, first compound 0.0949 µM) of 58%. For the same compound, the viability, T/C (second compound 0.1 µM, first compound 0.3 µM) was 46.9%, the viability, T/C (second compound 0.1 µM, first compound 0.949 µM) was 23.3% and the viability, T/C (second compound 0.1 µM, first compound 3 µM) was 23.3%. It also gave a viability, T/C (second compound 0.316 µM, first compound 0.00949 µM) of 69.7%, a viability, T/C (second compound 0.316 µM, first compound 0.03 µM) of 27.3% and a viability, T/C (second compound 0.316 µM, first compound 0.0949 µM) of 27.9%. For the same compound, the viability, T/C (second compound 0.316 µM, first compound 0.3 µM) was 16.8%, the viability, T/C (second compound 0.316 µM, first compound 0.949 µM) was 41.3% and the viability, T/C (second compound 0.316 µM, first compound 3 µM) was 37.1%. It also gave a viability, T/C (second compound 1 µM, first compound 0.00949 µM) of 55.2%, a viability, T/C (second compound 1 µM, first compound 0.03 µM) of 44.6% and a viability, T/C (second compound 1 µM, first compound 0.0949 µM) of 31.6%. For the same compound, the viability, T/C (second compound 1 µM, first compound 0.3 µM) was 25.8%, the viability, T/C (second compound 1 µM, first compound 0.949 µM) was 30.1% and the viability, T/C (second compound 1 µM, first compound 3 µM) was 38.3%. It also gave a viability, T/C (second compound 3.16 µM, first compound 0.00949 µM) of 54.5%, a viability, T/C (second compound 3.16 µM, first compound 0.03 µM) of 48.2% and a viability, T/C (second compound 3.16 µM, first compound 0.0949 µM) of 44.2%. For the same compound, the viability, T/C (second compound 3.16 µM, first compound 0.3 µM) was 36%, the viability, T/C (second compound 3.16 µM, first compound 0.949 µM) was 24.6% and the viability, T/C (second compound 3.16 µM, first compound 3 µM) was 31%. It also gave a viability, T/C (second compound 10 µM, first compound 0.00949 µM) of 68.6%, a viability, T/C (second compound 10 µM, first compound 0.03 µM) of 35.8% and a viability, T/C (second compound 10 µM, first compound 0.0949 µM) of 37.6%. The viability, T/C (second compound 10 µM, first compound 0.3 µM) was 33.4%, the viability, T/C (second compound 10 µM, first compound 0.949 µM) was 38.5% and the viability, T/C (second compound 10 µM, first compound 3 µM) was 23.9%.
